How the values were obtained:
[1] = tested on: Chang human conjunctival cell strains (ATCC CCL-20.2); test: Cell toxicity, viable cell number by β-hexosaminidase activity, conjunctival cells; format: cell-based; settings: concentration for survival rate of 50%
Description: (§1) There were used SV40 immortalized human corneal epithelial cell strains (Araki-Sasaki et al., IOVS, 1995, 36:614-621) as the corneal cells and Chang human conjunctival cell strains (ATCC CCL-20.2) as the conjunctival cells.
(§2) These cells were cultured in 96-well plate to a confluent of 30 to 50% and then each test substance stepwise diluted with the culture medium was added to the foregoing culture medium to thus carry out cultivation at 37° C. After completion of the cultivation, the plate was washed with PBS(−) and the number of residual cells was determined in terms of the β-hexosaminidase activity.
(§3) A group treated with only the solvent, which was used for dissolving the test substance was defined to be a negative control, the viable cell number observed for the control was assumed to be 100%, a dose-correlation curve was prepared on the basis of the viable cell number observed at each concentration of test substance and the concentration of each test substance required for achieving the survival rate of 50% (EC50) was determined from the curve and it was defined to be the toxicity value thereof.

[2] = tested on: SV40 immortalized human corneal epithelial cell strains; test: Cell toxicity, viable cell number by β-hexosaminidase activity, corneal epithelial cells; format: cell-based; settings: concentration for survival rate of 50%
Description: as §1, §2, §3

Japanese white rabbits = test: Inflammation in anterior of white rabbit after anterior chamber puncture (secondary aqueous humor PGE2 and protein); format: in vivo; settings: for Inhibition Rate (PGE2 Content) / Inhibition Rate (Protein Content): anterior chamber puncture, vs control; for PGE2 Content / Protein Content: secondary aqueous humor after anterior chamber puncture
Description: In this Test Example, there were used Japanese white rabbits (available from Japan Medical Animal Source Laboratory) each having a body weight ranging from 1.8 to 2.4 kg and they were divided into groups each consisting of 6 to 7 animals.
After administration of 250 U/kg of heparin (available from Takeda Chemical Industries, Ltd.) to these rabbits through the ear veins thereof, a test substance was dropped in the both eyes in an amount of about 60 μl. After 45 minutes from the dropping of the substance in the eyes, these animals were locally anesthetized with benoxil eye drop (available from Santen Pharmaceutical Co., Ltd.) and then whole of the anterior chamber fluid was collected using a 27G injection needle. This anterior chamber fluid was defined to be a primary aqueous humor. After 90 minutes from the collection of the aqueous humor, the rabbits were killed by anesthetization with an excess of pentobarbital sodium and the aqueous humor was again collected. This anterior chamber fluid was defined to be a secondary aqueous humor.
The concentration of prostaglandin E2 (hereunder referred to as “PGE2”) and the amount of proteins present in the collected secondary aqueous humor were determined and they were used as indications of inflammation. After pre-treatment of 100 μl of the aqueous humor using a Bond Elute C18 column, the concentration of PGE2 was determined using Biotrack PGE2 EIA system (available from Amersham Company). On the other hand, the amount of proteins was determined according to the Lowry method using bovine serum albumin (available from Nakarai Co., Ltd.) as a reference protein.
Etodolac as a test substance was dissolved in castor oil specified in the pharmacopoeia to concentrations of 0.5% and 5%. Meloxicam was diluted with physiological saline prior to use.

[3] = tested on: Japanese white male rabbits; test: Uveitis induced by LPS in rabbits (aqueous humor PGE2 and protein); format: in vivo, rabbit; settings: for Inhibition Rate (PGE2 Content) / Inhibition Rate (Protein Content): LPS uveitis, vs control
Description: In this Test Example, groups of Japanese white male rabbits each having a body weight ranging from 1.7 to 2.4 kg were used, wherein each group consisted of 12 to 16 eyes.
The lipopolysaccharide (LPS) (055: B5 type, available from Sigma Company) derived from E. coli was administered to these rabbits through the auricular veins in a dose of 1.25 μg/kg to thus induce uveitis. After 4 hours from the administration of LPS, the rabbits were killed by anesthetization with an excess of pentobarbital sodium (available from Tokyo Chemical Industry Co., Ltd.) and the anterior chamber fluid was collected.
The PGE2 concentration and the amount of proteins present in the collected aqueous humor were determined according to the same methods used in Example 1.
In this respect, each test substance was dropped in the both eyes of these animals prior to one hour from the administration of LPS at a dose of about 60 μL/eye. […]

[4] = 24 h, exposure 24 hours, Table 4
[5] = 24 h, exposure time 24 hr, Table 5
[6] = 48 h, exposure time 48 hr, Table 5
[7] = aqueous humor 4 hours after LPS, 0.1% eye drop one hour before LPS
[8] = aqueous humor 4 hours after LPS, 0.5% eye drop one hour before LPS
[9] = aqueous humor 4 hours after LPS, 1.0% eye drop one hour before LPS

In the case of `CCc1cccc2c3c([nH]c12)C(CC)(CC(=O)O)OCC3` (stereo not shown) [Etodolac, 1,8-diethyl-1,3,4,9-tetrahydropyrano [3,4-b] indole-1-acetic acid], the EC50 [1, 4] is reported as 800 µM, the EC50 [2, 4] is reported as 1000 µM and the “Effect on the PGE2 content increased by the anterior chamber puncture” value (Japanese white rabbits; aqueous humor, 0.5% and 5% in castor oil, FIG. 1) is reported as “inhibited the increase”. For the same compound, the “Effect on the protein content increased by the anterior chamber puncture” value (Japanese white rabbits; aqueous humor, 0.5% and 5% in castor oil, FIG. 2) was “inhibited the increase”.

With `O=C(O)Cc1ccccc1Nc1c(Cl)cccc1Cl` [Diclofenac Sodium] the EC50 [1, 4] was 130 µM, the EC50 [1, 5] was 230 µM and the EC50 [1, 6] was 220 µM. For the same compound, the EC50 [2, 4] was 300 µM, the EC50 [2, 5] was 630 µM and the EC50 [2, 6] was 230 µM.

Work on `COc1ccc2c(c1)c(CC(=O)O)c(C)n2C(=O)c1ccc(Cl)cc1` [Indometacin] yielded an EC50 [1, 4] of 370 µM and an EC50 [2, 4] of 570 µM.

With `CS(=O)(=O)Nc1ccc([N+](=O)[O-])cc1OC1CCCCC1` [NS-398, N-(2-(cyclohexyloxy)-4-nitrophenyl) methanesulfonamide] the “Inhibition Rate (PGE2 Content)” value ([3]; 0.5% in castor oil) was 65.9%, the “Inhibition Rate (PGE2 Content)” value ([3]; 5.0% in castor oil) was 59.4% and the “PGE2 Content” value ([3]; aqueous humor 4 hours after LPS 1.25 μg/kg, 0.5% in castor oil, dropped one hour before LPS) was 4553 ± 118.6 pg/mL. For the same compound, the “PGE2 Content” value ([3]; aqueous humor 4 hours after LPS 1.25 μg/kg, 5.0% in castor oil, dropped one hour before LPS) was 542.8 ± 79.8 pg/mL.

For `Cc1cnc(NC(=O)C2=C(O)c3ccccc3S(=O)(=O)N2C)s1` [Meloxicam, 4-hydroxy-2-methyl-N-(5-methyl-2-thiazolyl)-2H-1,2-benzo-thiazine-3-carboxamide 1,1-dioxide], the EC50 [1, 5] was 970 µM, the EC50 [1, 6] was 380 µM and the “Inhibition Rate (PGE2 Content)” value ([3]; 0.1% eye drop) was 55.9%. The “Inhibition Rate (Protein Content)” value ([3]; 0.1% eye drop) was 33.8%, the “Inhibition Rate (PGE2 Content)” value ([3]; 0.5% eye drop) was 68.8% and the “Inhibition Rate (PGE2 Content)” value ([3]; 1.0% eye drop) was 63.1%. For the same compound, the “Inhibition Rate (Protein Content)” value ([3]; 1.0% eye drop) was 49.4%, the “PGE2 Content” value [3, 7] was 1102.8 pg/mL and the “Protein Content” value [3, 7] was 16.0 ± 1.9 mg/mL. The “PGE2 Content” value [3, 8] was 780.9 pg/mL, the “Protein Content” value [3, 8] was 14.3 ± 2.6 mg/mL and the “PGE2 Content” value [3, 9] was 922.8 pg/mL. For the same compound, the “Protein Content” value [3, 9] was 12.2 ± 1.8 mg/mL, the EC50 [2, 5] was > 1000 µM and the EC50 [2, 6] was 840 µM. The “Inhibition Rate (PGE2 Content)” value (Japanese white rabbits; 0.1% eye drop) was 75.0%, the “Inhibition Rate (Protein Content)” value (Japanese white rabbits; 0.1% eye drop) was 29.3% and the “Inhibition Rate (PGE2 Content)” value (Japanese white rabbits; 0.5% eye drop) was 90.7%. For the same compound, the “Inhibition Rate (Protein Content)” value (Japanese white rabbits; 0.5% eye drop) was 52.2%, the “Inhibition Rate (PGE2 Content)” value (Japanese white rabbits; 1.0% eye drop) was 94.2% and the “Inhibition Rate (Protein Content)” value (Japanese white rabbits; 1.0% eye drop) was 47.6%. The “PGE2 Content” value (Japanese white rabbits; 0.1% eye drop) was 680.6 pg/mL, the “Protein Content” value (Japanese white rabbits; 0.1% eye drop, about 60 μl both eyes) was 16.2 ± 1.9 mg/mL and the “PGE2 Content” value (Japanese white rabbits; 0.5% eye drop) was 253.5 pg/mL. The “Protein Content” value (Japanese white rabbits; 0.5% eye drop) was 11.0 ± 1.5 mg/mL, the “PGE2 Content” value (Japanese white rabbits; 1.0% eye drop) was 158.3 pg/mL and the “Protein Content” value (Japanese white rabbits; 1.0% eye drop) was 12.0 ± 2.1 mg/mL.
